Experimental data reported in US20060188913A1, “Methods and products for enhancing immune responses using imidazoquinoline compounds” (University of Iowa Research Foundation, priority 2001, published 2006).

Tests used:
[1] = target: T1, hTLR7 (Homo sapiens, UniProt Q9NYK1); test: IL-8 production in 293 fibroblasts transiently expressing hTLR7; type: cell-based; conditions: CpG-ODN 2 μM, LPS 100 ng/ml
T1 construct: plasmids (pcDNA3.1 constructs) coding for full length hTLR2, hTLR7, hTLR8 and hTLR9; expressed in transfected cells; host or cells: 293T cells
T1 sequence (Q9NYK1 27-1049): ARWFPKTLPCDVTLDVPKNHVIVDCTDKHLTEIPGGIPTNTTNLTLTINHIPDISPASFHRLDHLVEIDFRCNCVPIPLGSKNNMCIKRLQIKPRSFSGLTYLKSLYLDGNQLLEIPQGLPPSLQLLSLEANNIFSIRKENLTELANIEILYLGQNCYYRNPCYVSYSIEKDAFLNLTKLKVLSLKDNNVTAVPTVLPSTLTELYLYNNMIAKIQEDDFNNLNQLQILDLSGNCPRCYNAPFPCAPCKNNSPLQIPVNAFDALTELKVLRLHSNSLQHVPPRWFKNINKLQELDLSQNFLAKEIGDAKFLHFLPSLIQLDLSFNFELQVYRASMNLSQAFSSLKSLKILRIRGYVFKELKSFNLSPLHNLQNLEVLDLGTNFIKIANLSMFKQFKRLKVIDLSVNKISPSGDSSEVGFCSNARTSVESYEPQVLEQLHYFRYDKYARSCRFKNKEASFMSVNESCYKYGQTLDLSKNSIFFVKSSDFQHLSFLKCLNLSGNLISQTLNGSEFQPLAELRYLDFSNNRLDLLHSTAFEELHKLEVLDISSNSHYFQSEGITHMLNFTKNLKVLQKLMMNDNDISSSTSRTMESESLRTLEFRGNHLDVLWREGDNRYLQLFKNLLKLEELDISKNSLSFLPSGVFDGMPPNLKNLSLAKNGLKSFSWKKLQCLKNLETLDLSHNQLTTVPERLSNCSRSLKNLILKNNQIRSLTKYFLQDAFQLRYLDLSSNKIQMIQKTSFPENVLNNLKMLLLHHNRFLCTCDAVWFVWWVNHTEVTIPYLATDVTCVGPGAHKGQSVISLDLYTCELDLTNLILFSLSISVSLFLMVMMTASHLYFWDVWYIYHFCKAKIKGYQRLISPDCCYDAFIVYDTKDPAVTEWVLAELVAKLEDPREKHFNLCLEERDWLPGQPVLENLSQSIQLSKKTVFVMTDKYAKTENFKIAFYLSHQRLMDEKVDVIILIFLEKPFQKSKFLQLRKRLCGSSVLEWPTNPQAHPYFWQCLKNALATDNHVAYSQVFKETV
Protocol: (§1) The cloned human TLR7 and human TLR8 cDNA were cloned into the expression vector pCDNA3. 1 (−) from Invitrogen using the NotI site. Utilizing a “gain of function” assay, hTLR7 and hTLR8 expression vectors were transiently expressed in human 293 fibroblasts (ATCC, CRL-1573) using the calcium phosphate method. Activation was monitored by IL-8 production after stimulus with CpG-ODN (2006 or 1668, 2 μM) or LPS (100 ng/ml).

[2] = target: T2, hTLR8 (Homo sapiens, UniProt Q9NR97); test: IL-8 production in 293 fibroblasts transiently expressing hTLR8; type: cell-based; conditions: CpG-ODN 2 μM, LPS 100 ng/ml
T2 construct: plasmids (pcDNA3.1 constructs) coding for full length hTLR2, hTLR7, hTLR8 and hTLR9; expressed in transfected cells; host or cells: 293T cells
T2 sequence (Q9NR97 27-1041): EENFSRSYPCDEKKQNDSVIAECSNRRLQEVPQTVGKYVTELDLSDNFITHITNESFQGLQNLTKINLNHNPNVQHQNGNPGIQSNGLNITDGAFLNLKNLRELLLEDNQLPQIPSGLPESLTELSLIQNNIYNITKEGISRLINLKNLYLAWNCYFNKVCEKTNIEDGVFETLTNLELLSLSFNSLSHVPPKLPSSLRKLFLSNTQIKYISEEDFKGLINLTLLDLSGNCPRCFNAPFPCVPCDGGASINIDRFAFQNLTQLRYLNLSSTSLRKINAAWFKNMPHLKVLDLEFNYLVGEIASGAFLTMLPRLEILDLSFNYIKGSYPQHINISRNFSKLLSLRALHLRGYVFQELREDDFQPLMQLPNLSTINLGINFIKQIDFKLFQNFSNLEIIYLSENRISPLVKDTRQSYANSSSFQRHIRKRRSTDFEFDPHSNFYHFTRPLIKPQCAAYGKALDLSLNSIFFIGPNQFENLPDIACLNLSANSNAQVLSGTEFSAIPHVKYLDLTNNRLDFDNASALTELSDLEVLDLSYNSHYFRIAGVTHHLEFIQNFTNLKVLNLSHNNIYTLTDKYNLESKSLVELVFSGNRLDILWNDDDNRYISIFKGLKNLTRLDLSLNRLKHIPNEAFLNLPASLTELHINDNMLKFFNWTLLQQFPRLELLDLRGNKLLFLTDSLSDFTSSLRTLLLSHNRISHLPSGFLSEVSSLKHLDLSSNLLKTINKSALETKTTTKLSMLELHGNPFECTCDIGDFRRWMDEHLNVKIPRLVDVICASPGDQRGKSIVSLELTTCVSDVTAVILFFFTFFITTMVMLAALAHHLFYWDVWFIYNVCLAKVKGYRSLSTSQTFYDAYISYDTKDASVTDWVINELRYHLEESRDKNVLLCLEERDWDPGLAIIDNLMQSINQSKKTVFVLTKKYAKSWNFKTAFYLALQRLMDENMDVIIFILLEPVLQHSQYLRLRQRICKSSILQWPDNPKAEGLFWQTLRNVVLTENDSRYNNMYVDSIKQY
Protocol: as §1

activation monitored by IL-8 production [1]: None of the stimuli used activated
activation monitored by IL-8 production [2]: None of the stimuli used activated
Substance: CpG ODN 2006
